The text below walks through data of ChEMBL document CHEMBL4052729, “Discovery of novel dengue virus entry inhibitors via a structure-based approach” (Bioorg Med Chem Lett, 2017).

pEC50: −log10 of the molar value. Values after ≈ are worked out from the molar mass of the structure shown.

A short description of data set [1]: Aqueous solubility of the compound in buffer at pH 6.4 after 48 hrs UV spectroscopy based shake flask method. The format is physicochemical.
Data set [2] in a line: Cytotoxicity against human A549 cells by MTT assay. Type of data set: cell-based. (In general: Tetrazolium dyes change colour on reduction, which living cells bring about.)
A short description of data set [3]: Aqueous solubility of the compound in buffer at pH 7.4 after 48 hrs UV spectroscopy based shake flask method. Type of data set: physicochemical.
Data set [4] is described as follows: Stability of the compound in pH 7.4 PBS buffer after 24 to 48 hrs by chromatographic method. Type of data set: physicochemical.
The nature of data set [5]: Selectivity index, ratio of CC50 for golden hamster BHK21 cells to EC50 for DENV2.
Data set [6] is described as follows: Selectivity index, ratio of CC50 for human A549 cells to EC50 for DENV2.
For data set [7], the system named is dengue virus type 2. In words: Antiviral activity against DENV2 infected in human A549 or golden hamster BHK21 cells preincubated with viral inoculum for 30 mins followed by viral inoculum removal after 1 hr and subsequently incubated with fresh medium containing compound and measured 8 hrs post-infection by luciferase reporter gene assay. Type of data set: functional, cell-based. Background: A reporter such as luciferase makes a cellular process visible.

Data set [8] can be described thus: Aqueous solubility of the compound in buffer at pH 2.0 after 48 hrs UV spectroscopy based shake flask method. Type of data set: physicochemical.
The nature of data set [9]: Cytotoxicity against golden hamster BHK21 cells by MTT assay. Type of data set: cell-based, Mesocricetus auratus, BHK-21.
Data set [10] concerns Bovine viral diarrhea virus 1. Description: Antiviral activity against BVDV. Type of data set: functional. The settings on record: Bovine viral diarrhea virus isolates and strains.

Broadly, the thermodynamic solubility is the concentration in solution at equilibrium with solid. Usually CC50 stands for the concentration that lowers cell viability or growth by half. The low end stands for harm at low concentration, the high end for better tolerance by the cells. By pEC50 is commonly meant −log10 of the EC50, conventionally taken in molar units. A higher pEC50 goes with a small EC50.

As for `CN1C(C(=O)Nc2ccccn2)=C(O)c2ccccc2S1(=O)=O` [PIROXICAM], the thermodynamic solubility at 48 h in data set [1] worked out at 7.3 µg/mL (≈ 22 µM).

On to `O=C(Nc1ccc(Oc2ncnc3cc(Cl)ccc23)nc1)c1ccc(-c2ccccn2)s1`, for which the CC50 in [2] and in data set [9] was more than 100 µM throughout. Also, the solubility (thermodynamic) at 48 h in data set [3] is 2.9 µg/mL (≈ 6.31 µM); in data set [1], 10.1 µg/mL (≈ 22 µM); in data set [8], 12.7 µg/mL (≈ 27.6 µM). The Stability in data set [4] is more than 48 h. The “Ratio CC50/EC50” value in data set [5] and in [6] was more than 32 in each case. Moreover, the pEC50 in [7] was 5.51; in [10], less than 4.30.

For `O=C(Nc1ccccc1OCc1ccc(Cl)c(Cl)c1)c1ccco1`, the CC50 in data set [2] and in data set [9] was more than 100 µM each time. Also, the “Ratio CC50/EC50” value in data set [5] and in data set [6] was more than 5 throughout. The pEC50 in [7] is 4.64; in [10] it was less than 4.30.

For `O=C(NC(=S)N1CCc2ccccc21)c1ccc(C#Cc2ccccc2)nc1`, the cytotoxic concentration (CC50) in data set [2] and in data set [9] was more than 100 µM in each case. Moreover, the “Ratio CC50/EC50” value in data set [5] and in data set [6] was more than 4 throughout. Moreover, the pEC50 in data set [7] is 4.54; in [10] it was less than 4.30.

As for `O=C1Nc2ccc(Cl)cc2[C@@](C#CC2CC2)(C(F)(F)F)O1` [EFAVIRENZ], the thermodynamic solubility at 48 h in [1] was determined as 68.3 µg/mL (≈ 216 µM).

Regarding `O=C(CSCC(=O)Nc1ccc(OC(F)(F)F)cc1)NNC(=S)Nc1ccccc1`, the cytotoxic concentration (CC50) in data set [2] and in data set [9] was more than 100 µM each time. In addition, the thermodynamic solubility at 48 h in data set [3] came to 1.2 µg/mL (≈ 2.62 µM); in data set [1] it was 13.1 µg/mL (≈ 28.6 µM); in [8], 8.2 µg/mL (≈ 17.9 µM). For the same compound, the Stability in data set [4] was more than 48 h. Also, the “Ratio CC50/EC50” value in data set [5] and in [6] was more than 20 in each case. Besides, the pEC50 is 5.29 in data set [7] and less than 4.30 in [10].
